The subject of test [1] is H9. Kind of test: Concentration which inhibits uninfected cell growth of HIV by 50% (IC50>140 uM) in acutely infected H9 lymphocyte cells was determined. Format: functional, cell-based. To be noted: Homo sapiens.
Test [2] deals with H9. Kind of test: Concentration of compound which inhibits virus replication of HIV by 50% (EC50 of 10 uM) in acutely infected H9 lymphocyte cells was determined. It counts as functional, cell-based. To be noted: Homo sapiens.

With `COc1c(OCc2ccccc2)c(OCc2ccccc2)cc(CBr)c1-c1c(CBr)cc(OCc2ccccc2)c(OCc2ccccc2)c1OC`, in the test with H9 [1], the IC50 (usually the midpoint of a concentration-inhibition curve) was found to be 30 µM. For the same compound, the half-maximal effective concentration (EC50) – broadly, the concentration giving half of the maximal effect – in the test with H9 [2] came out at 13 µM.
For `OCc1cc(OCc2ccccc2)c(OCc2ccccc2)c(OCc2ccccc2)c1-c1c(CO)cc(OCc2ccccc2)c(OCc2ccccc2)c1OCc1ccccc1`, in that order: more than 120 µM and more than 120 µM.
For `COc1c(OCc2ccccc2)c(OCc2ccccc2)cc(CO)c1-c1c(CO)cc(OCc2ccccc2)c(OCc2ccccc2)c1OC`, in that order: more than 140 µM and 10 µM.
`O=Cc1cc(OCc2ccccc2)c(OCc2ccccc2)c(OCc2ccccc2)c1-c1c(C=O)cc(OCc2ccccc2)c(OCc2ccccc2)c1OCc1ccccc1` had an IC50 in the test with H9 [1] of 70 µM. Also, the EC50 with H9 [2] stood at 45 µM.
Turning to `BrCc1cc(OCc2ccccc2)c(OCc2ccccc2)c(OCc2ccccc2)c1-c1c(CBr)cc(OCc2ccccc2)c(OCc2ccccc2)c1OCc1ccccc1`, the IC50 in the test with H9 [1] is more than 100 µM. This compound also came in with an EC50 with H9 [2] of more than 100 µM.
Regarding `Cc1cn([C@H]2C[C@H](N=[N+]=[N-])[C@@H](CO)O2)c(=O)[nH]c1=O` [ZIDOVUDINE], the IC50 in the test with H9 [1] stood at 2000 µM. In the test with H9 [2], this compound came in with an EC50 of 0.04 µM.
For `OCc1cc(OCc2ccccc2)c(OCc2ccccc2)c(O)c1-c1c(CO)cc(OCc2ccccc2)c(OCc2ccccc2)c1O`, in that order: 13 µM and 6 µM.
The corresponding values for `COc1c(OCc2ccccc2)c(OCc2ccccc2)cc(C=O)c1-c1c(C=O)cc(OCc2ccccc2)c(OCc2ccccc2)c1OC` are 4 µM and 2 µM.

These data come from ChEMBL document CHEMBL1126358, “New hexahydroxydiphenyl derivatives as potent inhibitors of HIV replication in H9 lymphocytes” (Bioorg Med Chem Lett, 1992).
